Measured values published in patent publication US11866433B2, “Diarylthiohydantoin compound as androgen receptor antagonist” (CHIA TAI TIANQING PHARMACEUTICAL GROUP CO., LTD., priority 2017, dated 2024).

Biological target: T1, androgen receptor (AR) (Homo sapiens, UniProt P10275)
T1 sequence (P10275 1-920): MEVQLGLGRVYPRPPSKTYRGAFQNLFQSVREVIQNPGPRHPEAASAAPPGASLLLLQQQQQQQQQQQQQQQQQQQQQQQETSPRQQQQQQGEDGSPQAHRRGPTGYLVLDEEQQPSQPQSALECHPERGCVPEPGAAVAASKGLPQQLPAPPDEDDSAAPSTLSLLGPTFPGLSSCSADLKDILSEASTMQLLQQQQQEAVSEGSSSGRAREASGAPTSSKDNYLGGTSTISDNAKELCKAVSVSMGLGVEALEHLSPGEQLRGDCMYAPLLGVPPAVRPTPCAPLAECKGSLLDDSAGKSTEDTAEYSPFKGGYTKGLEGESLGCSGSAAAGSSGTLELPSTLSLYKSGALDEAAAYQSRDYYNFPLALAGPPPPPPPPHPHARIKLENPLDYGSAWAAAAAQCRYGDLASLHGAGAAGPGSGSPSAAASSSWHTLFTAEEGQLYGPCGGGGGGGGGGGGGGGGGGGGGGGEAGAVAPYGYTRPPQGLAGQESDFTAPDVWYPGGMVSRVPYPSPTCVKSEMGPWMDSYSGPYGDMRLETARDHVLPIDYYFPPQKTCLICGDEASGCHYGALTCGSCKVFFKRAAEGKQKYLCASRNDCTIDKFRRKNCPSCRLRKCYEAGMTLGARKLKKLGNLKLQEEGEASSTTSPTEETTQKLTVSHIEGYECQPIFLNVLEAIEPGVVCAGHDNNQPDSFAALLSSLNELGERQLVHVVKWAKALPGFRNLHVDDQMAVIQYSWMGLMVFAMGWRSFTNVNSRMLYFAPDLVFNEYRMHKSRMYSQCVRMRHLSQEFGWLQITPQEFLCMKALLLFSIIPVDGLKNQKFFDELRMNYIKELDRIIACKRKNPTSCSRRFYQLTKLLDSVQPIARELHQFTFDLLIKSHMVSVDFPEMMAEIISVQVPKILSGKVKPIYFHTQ
Assay: Antagonism of compounds on nuclear translocation of androgen receptor (PathHunter NHR cell lines)
Assay type: cell-based
Settings: antagonist mode, agonist 6a-Fluorotestosterone 0.06 μM (EC80)
Experimental: Example 75 Test of Antagonism of Compounds on Nuclear Translocation of Androgen Receptor (AR)
1. PathHunter NHR cell lines were recovered and cultured for amplification.
2. The cells were inoculated onto a 384-well plate prior to testing, and incubated at 37° C. The serum for culture was filtered with charcoal-dextran to reduce the hormone level therein.
3. In the detection of the antagonistic function, a compound was added to the cells and incubated for 60 min. The working concentration of the test compound was diluted from 10 μM at a 3-fold concentration gradient, respectively including: […]. Then, an agonist 6a-Fluorotestosterone 0.06 μM (concentration: EC80, i.e., 80% agonistic compound concentration) was added, and the mixture was incubated at 37° C. or at room temperature for 3-16 h.
4. Signal detection: 12.5 μL or 15 μL (50%, v/v) PathHunter detection mixed solution (kit: DiscoverX product catalog number: 93-0001 series) was added, and incubated at room temperature for 1 h. The chemiluminescent signal was read with a PerkinElmer Envision™ instrument.
5. Data analysis: The compound activity was analyzed with CBIS data analysis software (ChemInnovation, CA). The calculation formula of the inhibition percent of the antagonist is as follows: IC50 inhibition ratio (%)=[…]×(1−(average RLU value of the test compound−average RLU value of the blank control group)/(average RLU value of EC80 control group−average RLU value of the blank control group)).

| SMILES | IC50 |
| --- | --- |
| CNc1ncnc2cc(N3C(=S)N(c4ccc(C#N)c(C(F)(F)F)c4)C(=O)C3(C)C)ccc12 [Compound 1] | > 10000 nM |
| CNC(=O)c1ccc(-n2c(=S)n(-c3ccc(C#N)c(C(F)(F)F)c3)c3ncccc32)cc1F [Compound 2] | > 10000 nM |
| CNC(=O)c1ccc(-n2c(=S)n(-c3ccc(C#N)c(C(F)(F)F)c3)c3nccc(C)c32)cc1F [Compound 3] | 1400 nM |
| CCN1CCOc2cc(N3C(=O)N(c4ccc(C#N)c(C(F)(F)F)c4)C(=O)C3(C)C)ccc2C1=O [Compound 4] | 2190 nM |
| CC1(C)C(=O)N(c2ccc(C#N)c(C(F)(F)F)c2)C(=S)N1c1ccc2c(=O)n(CC(F)(F)F)cnc2c1 [Compound 5] | 3650 nM |
| CC1(C)C(=O)N(c2ccc(C#N)c(C(F)(F)F)c2)C(=S)N1c1ccc2c(=O)n(CC(F)(F)F)ncc2c1 [Compound 6] | 3070 nM |
| CC1(C)C(=O)N(c2ccc(C#N)c(C(F)(F)F)c2)C(=S)N1c1ccc2c(cnn2C2COCC2O)c1 (stereo not drawn) [Compound 7] | 4260 nM |
| CC1(C)C(=O)N(c2ccc(C#N)c(C(F)(F)F)c2)C(=S)N1c1ccc2nn(C3COCC3O)cc2c1 (stereo not drawn) [Compound 8] | 4270 nM |
| Cc1nc(OCCO)c2cc(N3C(=S)N(c4ccc(C#N)c(C(F)(F)F)c4)C(=O)C3(C)C)ccc2n1 [Compound 9] | 5350 nM |
| CC1(C)C(=O)N(c2ccc(C#N)c(C(F)(F)F)c2)C(=S)N1c1ccc2nc(C3CC3)nc(OCCO)c2c1 [Compound 11] | 1140 nM |
| CC1(C)C(=O)N(c2ccc(C#N)c(C(F)(F)F)c2)C(=S)N1c1ccc2ncnc(OCCO)c2c1 [Compound 12] | 3260 nM |
| CC1(C)C(=O)N(c2ccc(C#N)c(C(F)(F)F)c2)C(=S)N1c1cc(F)c2ncnc(OCCO)c2c1 [Compound 13] | 6020 nM |
| CC1(C)C(=O)N(c2ccc(C#N)c(C(F)(F)F)c2)C(=S)N1c1ccc2nc(OCCO)ncc2c1 [Compound 14] | 4900 nM |
| CC1(C)C(=O)N(c2ccc(C#N)c(C(F)(F)F)c2)C(=S)N1c1ccc2nc(C(F)F)nc(OCCO)c2c1 [Compound 15] | 1120 nM |
| CNc1nc(OCCO)c2cc(N3C(=S)N(c4ccc(C#N)c(C(F)(F)F)c4)C(=O)C3(C)C)ccc2n1 [Compound 16] | 3910 nM |
| CCc1nc(OCCO)c2cc(N3C(=S)N(c4ccc(C#N)c(C(F)(F)F)c4)C(=O)C34CCC4)ccc2n1 [Compound 17] | 650 nM |
| CC1(C)C(=O)N(c2ccc(C#N)c(C(F)(F)F)c2)C(=S)N1c1cc(F)c2nc(C3CC3)nc(OCCO)c2c1 [Compound 18] | 2840 nM |
| CCc1nc(OC2CCOCC2)c2cc(N3C(=S)N(c4ccc(C#N)c(C(F)(F)F)c4)C(=O)C3(C)C)cc(F)c2n1 [Compound 19] | 1860 nM |
| CCc1nc(OCCO)c2cc(N3C(=S)N(c4ccc(C#N)c(C(F)(F)F)c4)C(=O)C34CCC4)cc(F)c2n1 [Compound 20] | 1560 nM |
| CC1(C)C(=O)N(c2ccc(C#N)c(C(F)(F)F)c2)C(=S)N1c1cc(F)c2nc(C(F)F)nc(OCCO)c2c1 [Compound 21] | 1890 nM |
| CCc1nc(OCCCS(C)(=O)=O)c2cc(N3C(=S)N(c4ccc(C#N)c(C(F)(F)F)c4)C(=O)C3(C)C)cc(F)c2n1 [Compound 22] | 2360 nM |
| CC1(C)C(=O)N(c2cnc(C#N)c(C(F)(F)F)c2)C(=S)N1c1cc(F)c2nc(C3CC3)nc(OCCO)c2c1 [Compound 23] | 1150 nM |
| CCc1nc(OCCN(C)C)c2cc(N3C(=S)N(c4ccc(C#N)c(C(F)(F)F)c4)C(=O)C3(C)C)cc(F)c2n1 [Compound 24] | 3100 nM |
| CCc1nc(OCCO)c2cc(N3C(=S)N(c4cnc(C#N)c(C(F)(F)F)c4)C(=O)C34CCC4)cc(F)c2n1 [Compound 25] | 1220 nM |
| CC1(C)C(=O)N(c2cnc(C#N)c(C(F)(F)F)c2)C(=S)N1c1cc(F)c2nc(C(F)F)nc(OCCO)c2c1 [Compound 26] | 1710 nM |
| CCc1nc(OCC(=O)NC)c2cc(N3C(=S)N(c4ccc(C#N)c(C(F)(F)F)c4)C(=O)C3(C)C)cc(F)c2n1 [Compound 28] | 8880 nM |

| SMILES | IC50 |
| --- | --- |
| CCc1nc(OCC2COC2)c2cc(N3C(=S)N(c4ccc(C#N)c(C(F)(F)F)c4)C(=O)C3(C)C)cc(F)c2n1 [Compound 29] | 830 nM |
| CCc1cc(=O)n2cc(N3C(=S)N(c4ccc(C#N)c(C(F)(F)F)c4)C(=O)C3(C)C)ccc2n1 [Compound 30] | 2540 nM |
| CCc1nc2ccc(N3C(=S)N(c4ccc(C#N)c(C(F)(F)F)c4)C(=O)C3(C)C)cn2c(=O)c1OC [Compound 31] | 3800 nM |
| CCc1nc(OCC(N)=O)c2cc(N3C(=S)N(c4ccc(C#N)c(C(F)(F)F)c4)C(=O)C3(C)C)cc(F)c2n1 [Compound 32] | 6760 nM |
| CCc1nc2ccc(N3C(=S)N(c4ccc(C#N)c(C(F)(F)F)c4)C(=O)C3(C)C)cn2c(=O)c1O [Compound 33] | 9580 nM |
| CCc1nc2c(F)cc(N3C(=S)N(c4ccc(C#N)c(C(F)(F)F)c4)C(=O)C3(C)C)cn2c(=O)c1OC [Compound 34] | 3230 nM |
| CCc1nc(OCC2(O)CC2)c2cc(N3C(=S)N(c4ccc(C#N)c(C(F)(F)F)c4)C(=O)C3(C)C)cc(F)c2n1 [Compound 36] | 5650 nM |
| CCc1nc2ccc(N3C(=S)N(c4ccc(C#N)c(C(F)(F)F)c4)C(=O)C3(C)C)cn2c(=O)c1OCCOC [Compound 37] | 4470 nM |
| CCc1nc2ccc(N3C(=S)N(c4ccc(C#N)c(C(F)(F)F)c4)C(=O)C3(C)C)cn2c(=O)c1OCCO [Compound 38] | 3580 nM |
| CCc1nc2c(F)cc(N3C(=S)N(c4ccc(C#N)c(C(F)(F)F)c4)C(=O)C3(C)C)cn2c(=O)c1O [Compound 39] | 5950 nM |
| CCc1nc2c(F)cc(N3C(=S)N(c4ccc(C#N)c(C(F)(F)F)c4)C(=O)C3(C)C)cn2c(=O)c1OCCOC [Compound 40] | 2150 nM |
| CCc1nc2c(F)cc(N3C(=S)N(c4ccc(C#N)c(C(F)(F)F)c4)C(=O)C3(C)C)cn2c(=O)c1OCCO [Compound 41] | 2750 nM |
| CCc1nc2c(F)cc(N3C(=S)N(c4ccc(C#N)c(C(F)(F)F)c4)C(=O)C3(C)C)cn2c(=O)c1OCC(=O)NC [Compound 42] | 2200 nM |
| CCc1nc2c(F)cc(N3C(=S)N(c4ccc(C#N)c(C(F)(F)F)c4)C(=O)C3(C)C)cn2c(=O)c1OCC(N)=O [Compound 43] | 3500 nM |
| CCc1nc(OC2COC[C@H]2O)c2cc(N3C(=S)N(c4ccc(C#N)c(C(F)(F)F)c4)C(=O)C3(C)C)cc(F)c2n1 (stereo partly drawn) [Compound 44] | 3760 nM |
| CCc1nc2c(F)cc(-n3c(=S)n(-c4ccc(C#N)c(C(F)(F)F)c4)c4nccc(C)c43)cc2c(=O)[nH]1 [Compound 45] | 2640 nM |
| CCc1nc(OC2COC[C@@H]2O)c2cc(N3C(=S)N(c4ccc(C#N)c(C(F)(F)F)c4)C(=O)C3(C)C)cc(F)c2n1 (stereo partly drawn) [Compound 46] | 3080 nM |
| CCc1nc2c(F)cc(N3C(=S)N(c4ccc(C#N)c(C(F)(F)F)c4)C(=O)C3(C)C)cn2c(=O)c1F [Compound 47] | 2570 nM |
| CCc1nc(OCCO)c2cc(N3C(=S)N(c4ccc(C#N)c(C(F)F)c4)C(=O)C3(C)C)ccc2n1 [Compound 48] | 3670 nM |
| CC(F)(F)c1nc(OCCO)c2cc(N3C(=S)N(c4ccc(C#N)c(C(F)(F)F)c4)C(=O)C3(C)C)cc(F)c2n1 [Compound 49] | 1430 nM |
| CCc1nc(OCCO)c2cc(N3C(=S)N(c4ccc(C#N)c(C(F)F)c4)C(=O)C3(C)C)cc(F)c2n1 [Compound 50] | 3450 nM |
| CCc1nc(-c2cn[nH]c2)c2cc(N3C(=S)N(c4ccc(C#N)c(C(F)(F)F)c4)C(=O)C3(C)C)cc(F)c2n1 [Compound 51] | 640 nM |
| CCc1nc(-c2cc[nH]n2)c2cc(N3C(=S)N(c4ccc(C#N)c(C(F)(F)F)c4)C(=O)C3(C)C)cc(F)c2n1 [Compound 52] | 1230 nM |
| CCc1cc(=O)n2cc(N3C(=S)N(c4cnc(C#N)c(C(F)(F)F)c4)C(=O)C3(C)C)cc(F)c2n1 [Compound 53] | 2110 nM |
| CCc1cc(=O)n2cc(N3C(=S)N(c4ccc(C#N)c(C(F)(F)F)c4)C(=O)C34CCC4)cc(F)c2n1 [Compound 54] | 2500 nM |
